In patent US10336702B2, “Pharmaceutically active compounds” (BERGENBIO ASA, priority 2015, dated 2019) one finds IC50 data, which are given here for eleven molecules.

Where only a bound is given, the exact number is not on record here.

One test addresses T1, Akt1 (Homo sapiens, UniProt P31749).
T1 construct: unspecified tag, removed (detagged) (cleaved yes); purchased SignalChem and Proteros (Akt1); Merck Millipore (PDK1) 14-452 (PDK1); none given for Akt1
Description: Akt activation assay (PDK1-mediated activation, LANCE Ultra crosstide TR-FRET), Akt1. In kind it is biochemical. The following applies: read-out: Biological Assay 1 IC50 (nM) Akt1. In a few lines: (§1)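 Human Akt1, Akt2 or Akt3 (SignalChem: 5, 15, 3 nM; Proteros: 5 nM each) was preincubated with compound, then activated by 5 nM PDK1 on PtdIns(3,4,5)P3/DOPS/DOPC vesicles with 100 µM ATP and 100 nM ULight-crosstide (HEPES pH 7.5, 1% DMSO) for 30 min. Product was detected by Eu-anti-phospho-crosstide TR-FRET (665/615 nm), with IC50 from a 4-parameter fit.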

The target in a further test is T2, p-Akt2 in WM115 cells (Homo sapiens, UniProt P31751).
T2 construct: SureFire assays to detect cellular p-Akt1, p-Akt2 and p-Akt3 levels in WM115 cells (Akt2/3) and LNCaP cells (Akt1); endogenous in cells; host or cells: WM115 (ECACC 91061232), insulin-stimulated
T2 sequence (P31751 whole entry): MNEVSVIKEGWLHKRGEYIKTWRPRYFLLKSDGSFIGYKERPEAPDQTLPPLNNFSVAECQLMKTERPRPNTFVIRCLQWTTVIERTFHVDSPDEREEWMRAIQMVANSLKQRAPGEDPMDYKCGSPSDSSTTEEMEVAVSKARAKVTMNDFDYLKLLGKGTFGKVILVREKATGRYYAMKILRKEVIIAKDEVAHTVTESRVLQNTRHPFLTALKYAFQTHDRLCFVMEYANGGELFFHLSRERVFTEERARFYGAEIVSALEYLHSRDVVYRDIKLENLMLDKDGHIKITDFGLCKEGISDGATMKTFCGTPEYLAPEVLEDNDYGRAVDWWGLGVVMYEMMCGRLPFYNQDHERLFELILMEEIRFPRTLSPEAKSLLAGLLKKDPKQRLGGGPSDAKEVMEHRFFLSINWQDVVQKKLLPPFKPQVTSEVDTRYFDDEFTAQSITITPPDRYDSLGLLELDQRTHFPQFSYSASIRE
Description: Phospho-Akt cellular SureFire assay, p-Akt2 in WM115 cells. In kind it is cell-based. The following applies: insulin stimulated, read-out: Biological Assay 2 IC50 (nM) Akt2 WM115. A digest of the protocol: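 WM115 cells in 0.1% FBS medium stimulated 10 min with 100 nM insulin, then exposed to compound for 15 min at 37° C (0.3% DMSO final). Lysates assayed by AlphaScreen with anti-(pThr308)Akt and isoform-specific total Akt2 antibodies; IC50 from 4-parameter fit.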

A further test has as its target T3, p-Akt3 in WM115 cells (Homo sapiens, UniProt Q9Y243).
T3 construct: SureFire assays to detect cellular p-Akt1, p-Akt2 and p-Akt3 levels in WM115 cells (Akt2/3) and LNCaP cells (Akt1); endogenous in cells; host or cells: WM115 (ECACC 91061232), insulin-stimulated
Description: Phospho-Akt cellular SureFire assay, p-Akt3 in WM115 cells. To be noted: insulin stimulated, read-out: Biological Assay 2 IC50 (nM) Akt3 WM115. In kind it is cell-based. In a few lines: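 WM115 cells were serum-reduced to 0.1% FBS, stimulated with 100 nM insulin for 10 min, then exposed to compound (0.3% DMSO) for 15 min at 37 °C. Lysates were assayed for Thr308-phosphorylated Akt3 by AlphaScreen SureFire using an isoform-specific total Akt3 capture antibody. IC50 was derived from a 4-parameter fit.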

Another test deals with T4, Akt3 (Homo sapiens, UniProt Q9Y243).
T4 construct: unspecified tag, removed (detagged) (cleaved yes); purchased SignalChem and Proteros (Akt3); Merck Millipore (PDK1) 14-452 (PDK1); none given for Akt3
T4 sequence (Q9Y243 whole entry): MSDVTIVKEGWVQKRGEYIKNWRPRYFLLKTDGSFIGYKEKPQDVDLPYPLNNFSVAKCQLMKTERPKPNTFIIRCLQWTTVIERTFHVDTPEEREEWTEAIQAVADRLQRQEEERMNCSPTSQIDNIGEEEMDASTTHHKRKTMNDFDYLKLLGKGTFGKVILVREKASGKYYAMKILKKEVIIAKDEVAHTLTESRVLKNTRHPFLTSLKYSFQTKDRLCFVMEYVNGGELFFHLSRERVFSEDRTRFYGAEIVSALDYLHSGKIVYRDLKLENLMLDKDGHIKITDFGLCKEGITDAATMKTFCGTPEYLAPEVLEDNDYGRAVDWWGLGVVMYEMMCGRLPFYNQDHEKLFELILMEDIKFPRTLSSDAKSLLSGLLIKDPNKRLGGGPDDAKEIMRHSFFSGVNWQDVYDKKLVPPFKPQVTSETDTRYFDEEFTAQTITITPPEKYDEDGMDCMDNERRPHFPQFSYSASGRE
Briefly: Akt activation assay (PDK1-mediated activation, LANCE Ultra crosstide TR-FRET), Akt3. Format: biochemical. To be noted: read-out: Biological Assay 1 IC50 (nM) Akt3. In a few lines: as §1
On the technique in general: Time-resolved FRET reads energy transfer from a long-lived donor to a nearby acceptor.

The next test has as its target T5, p-Akt1 in LNCaP cells (Homo sapiens, UniProt P31749).
T5 construct: SureFire assays to detect cellular p-Akt1, p-Akt2 and p-Akt3 levels in WM115 cells (Akt2/3) and LNCaP cells (Akt1); endogenous in cells; host or cells: LNCaP (ECACC 89110211)
Briefly: Phospho-Akt cellular SureFire assay, p-Akt1 in LNCaP cells. Format: cell-based. The following applies: read-out: Biological Assay 2 IC50 (nM) Akt1 LNCaP. The source says: Biological Assay 2: Phospho-Akt (p-Akt) Cellular SureFire Assays
The following describes SureFire assays to detect cellular p-Akt1, p-Akt2 and p-Akt3 levels in WM115 cells (Akt2/3) and LNCaP cells (Akt1). In the case of Akt2 and Akt3, Streptavidin-coated donor beads capture a biotinylated anti-mouse antibody that in turn recognises a mouse total Akt antibody which is specific to each isoform. The protein A-conjugated acceptor beads capture an antibody that recognises the phosphoprotein. Similarly in the Akt1 kit, the donor and acceptor beads are used to capture each antibody pair consisting of an antibody that specifically recognises Akt1 as well as an antibody that recognises the phosphoprotein. In each case, close proximity of the beads allows energy transfer from donor to acceptor.
AlphaScreen® SureFire™ Phospho-Akt1 (pThr308) Kit from Perkin Elmer (TGRA2S10K)
LNCaP cells (ECACC, 89110211) cultured in RPMI-1640 culture media (Fisher, 10665193) supplemented with 2 mM L-glutamine, 1% sodium pyruvate and 10% FBS
Cell treatment: 1×10^5 WM115 cells or 5×10^4 LNCaP cells were seeded into each well of a 96 well poly-D-Lysine coated tissue culture plate and incubated overnight at 37° C.+5% CO2. Media was removed from cells and replaced with assay buffer consisting of the full culture media described above but with 0.1% FBS instead of 10% FBS. Only WM115 cells were stimulated at 37° C.+5% CO2 for 10 min with 5 μL insulin at a final concentration of 100 nM. Cells were incubated with 5 μL of test compound at a final DMSO concentration of 0.3% for 15 min at 37° C.+5% CO2. Cell lysis was carried out according to kit instructions.
Assay format (performed in subdued lighting): 4 μL cell lysate and 5 μL reaction buffer were incubated together in the dark at room temperature for 2 h. Reaction buffer was supplemented with a 1/5 dilution of activation buffer, a 1/50 dilution of acceptor beads and in the case of the custom kits, antibodies were added at dilutions of 1/20,000 for Akt2 and 1/2,000 for Akt3.
2 μL dilution buffer, supplemented with a 1/20 dilution of donor beads was added to each well and incubated for a further 2 h. Plates were read with the EnVision® Multilabel Plate Reader and using the AlphaScreen settings. Compound IC50 was determined using a 4-parameter equation.

The target in another test is T6, Akt2 (Homo sapiens, UniProt P31751).
T6 construct: unspecified tag, removed (detagged) (cleaved yes); purchased SignalChem and Proteros (Akt2); Merck Millipore (PDK1) 14-452 (PDK1); none given for Akt2
T6 sequence (P31751 whole entry): as the sequence (P31751 whole entry) above
Description: Akt activation assay (PDK1-mediated activation, LANCE Ultra crosstide TR-FRET), Akt2. In kind it is biochemical. To be noted: read-out: Biological Assay 1 IC50 (nM) Akt2. A digest of the protocol: as §1

T3 sequence (Q9Y243 whole entry): as the sequence (Q9Y243 whole entry) above
T5 sequence (P31749 whole entry): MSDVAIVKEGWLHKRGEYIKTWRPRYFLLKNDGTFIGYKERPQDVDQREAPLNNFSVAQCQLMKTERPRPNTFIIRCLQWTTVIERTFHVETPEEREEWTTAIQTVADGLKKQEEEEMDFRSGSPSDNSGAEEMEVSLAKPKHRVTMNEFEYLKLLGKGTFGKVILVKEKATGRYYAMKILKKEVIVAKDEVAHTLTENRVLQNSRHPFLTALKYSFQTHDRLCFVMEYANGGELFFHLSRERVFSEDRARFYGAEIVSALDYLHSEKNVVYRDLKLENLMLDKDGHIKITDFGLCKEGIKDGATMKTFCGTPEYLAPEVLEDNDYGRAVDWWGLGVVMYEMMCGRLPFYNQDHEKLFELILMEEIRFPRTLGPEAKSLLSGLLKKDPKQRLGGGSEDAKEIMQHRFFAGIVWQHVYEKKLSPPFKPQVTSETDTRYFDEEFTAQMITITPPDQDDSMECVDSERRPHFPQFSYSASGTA
T1 sequence (P31749 whole entry): as above

As usually defined, the IC50 is the concentration that gives 50% inhibition. Turning to `COC(=O)N(C)[C@H]1CC[C@H](C(F)C(=O)Nc2cnc(-c3ccc(C4(N)CCC4)cc3)c(-c3ccccc3)c2)CC1` (relative stereo) [Example 52, Methyl (trans-4-(2-((6-(4-(1-aminocyclobutyl)phenyl)-5-phenylpyridin-3-yl)amino)-1-fluoro-2-oxoethyl)cyclohexyl)(methyl)carbamate], the 50% inhibitory concentration (IC50) at Akt1 was 6100 nM; at p-Akt2 in WM115 cells, 5000 nM; on p-Akt3 in WM115 cells, 180 nM; at Akt3, 92 nM; at p-Akt1 in LNCaP cells it was above 10000 nM; on Akt2, 520 nM.

As to `CC(=O)N(C)[C@H]1CC[C@H](CC(=O)Nc2cnc(-c3ccc([C@]4(N)C[C@](C)(O)C4)cc3)c(-c3ccccc3)c2)CC1` [Example 1, N-(6-(4-(trans-1-amino-3-hydroxy-3-methylcyclobutyl)phenyl)-5-phenylpyridin-3-yl)-2-(trans-4-(N-methylacetamido)cyclohexyl)acetamide], the half-inhibitory concentration (IC50) amounted to 780 nM on Akt1; 1800 nM at p-Akt2 in WM115 cells; 30 nM at p-Akt3 in WM115 cells; 15 nM on Akt3; 2700 nM at p-Akt1 in LNCaP cells; 110 nM at Akt2.

Consider `CC(=O)NC1CCC(CC(=O)Nc2cnc(-c3ccc([C@]4(N)C[C@](C)(O)C4)cc3)c(-c3ccccc3)c2)CC1` (stereo partly drawn) [Example 2, 2-(trans-4-acetamidocyclohexyl)-N-(6-(4-(trans-1-amino-3-hydroxy-3-methylcyclobutyl)phenyl)-5-phenylpyridin-3-yl)acetamide], for which the IC50 at Akt1 was 980 nM; at p-Akt2 in WM115 cells, 4400 nM; on p-Akt3 in WM115 cells, 150 nM; on Akt3 it was 20 nM; on p-Akt1 in LNCaP cells it was 8700 nM; at Akt2, 94 nM.

Turning to `CC(=O)N(C)[C@H]1CC[C@H](CC(=O)Nc2cnc(-c3ccc(C(C)(C)N)cc3)c(-c3ccccc3)c2)CC1` [Example 3, N-(6-(4-(2-aminopropan-2-yl)phenyl)-5-phenylpyridin-3-yl)-2-(trans-4-(N-methylacetamido)cyclohexyl)acetamide], the IC50 was above 30000 nM at Akt1; 10000 nM on p-Akt2 in WM115 cells; 170 nM at p-Akt3 in WM115 cells; 72 nM at Akt3; above 26000 nM on p-Akt1 in LNCaP cells; above 30000 nM at Akt2.

In the case of `CC(C)C(=O)N(C)[C@H]1CC[C@H](CC(=O)Nc2cnc(-c3ccc(C(C)(C)N)cc3)c(-c3ccccc3)c2)CC1` [Example 4, N-(trans-4-(2-((6-(4-(2-aminopropan-2-yl)phenyl)-5-phenylpyridin-3-yl)amino)-2-oxoethyl)cyclohexyl)-N-methylisobutyramide], the IC50 was above 30000 nM at Akt1; 7400 nM at p-Akt2 in WM115 cells; 190 nM on p-Akt3 in WM115 cells; 73 nM on Akt3; above 30000 nM at p-Akt1 in LNCaP cells; 7300 nM on Akt2.

Regarding `CC(=O)N(C)[C@H]1CC[C@H](CC(=O)Nc2cnc(-c3ccc(C(C)(C)N)cc3)c(-c3ccsc3)c2)CC1` [Example 6, N-(6-(4-(2-aminopropan-2-yl)phenyl)-5-(thiophen-3-yl)pyridin-3-yl)-2-(trans-4-(N-methylacetamido)cyclohexyl)acetamide], the IC50 on Akt1 is above 30000 nM; on p-Akt2 in WM115 cells, above 21000 nM; at p-Akt3 in WM115 cells it was 340 nM; at Akt3, 720 nM; at p-Akt1 in LNCaP cells it was above 30000 nM; at Akt2 it was above 24000 nM.

With `CC(=O)N(C)[C@H]1CC[C@H](CC(=O)Nc2cnc(-c3ccc([C@H](C)N)cc3)c(-c3ccccc3)c2)CC1` [Example 7, N-(6-(4-((S)-1-aminoethyl)phenyl)-5-phenylpyridin-3-yl)-2-(trans-4-(N-methylacetamido)cyclohexyl)acetamide], the IC50 is above 30000 nM at Akt1; 10000 nM at p-Akt2 in WM115 cells; 300 nM at p-Akt3 in WM115 cells; 350 nM at Akt3; above 30000 nM on p-Akt1 in LNCaP cells; 9200 nM at Akt2.

As for `CC(=O)N(C)[C@H]1CC[C@H](CC(=O)Nc2cnc(-c3ccc(C(C)(C)N)cc3)c(-c3ccccc3F)c2)CC1` [Example 9, N-(6-(4-(2-aminopropan-2-yl)phenyl)-5-(2-fluorophenyl)pyridin-3-yl)-2-(trans-4-(N-methylacetamido)cyclohexyl)acetamide], the half-maximal inhibitory concentration (IC50) on Akt1 is above 30000 nM; at p-Akt2 in WM115 cells it was 3500 nM; at p-Akt3 in WM115 cells, 110 nM; on Akt3 it was 150 nM; on p-Akt1 in LNCaP cells, above 30000 nM; on Akt2, 2500 nM.

Regarding `CC(=O)N(C)[C@H]1CC[C@H](CC(=O)Nc2cnc(-c3ccc(C4(N)CCC4)cc3)c(-c3ccccc3)c2)CC1` [Example 10, N-(6-(4-(1-aminocyclobutyl)phenyl)-5-phenylpyridin-3-yl)-2-(trans-4-(N-methylacetamido)cyclohexyl)acetamide], the IC50 on Akt1 worked out at 6200 nM; at p-Akt2 in WM115 cells, 970 nM; on p-Akt3 in WM115 cells it was 39 nM; at Akt3, 30 nM; at p-Akt1 in LNCaP cells, 6700 nM; at Akt2, 260 nM.

For `COC(=O)N(C)[C@H]1CC[C@H](C(C)C(=O)Nc2cnc(-c3ccc(C(C)(C)N)cc3)c(-c3ccccc3)c2)CC1` (stereo partly drawn) [Example A45, Methyl (trans-4-(1-((6-(4-(2-aminopropan-2-yl)phenyl)-5-phenylpyridin-3-yl)amino)-1-oxopropan-2-yl)cyclohexyl)(methyl)carbamate], the IC50 was above 30000 nM at Akt1; 12000 nM on p-Akt2 in WM115 cells; 480 nM at p-Akt3 in WM115 cells; 2600 nM at Akt3; above 30000 nM on p-Akt1 in LNCaP cells.

Regarding `CC(C)N(C(=O)C1CC1)[C@H]1CC[C@H](CC(=O)Nc2cc(-c3ccccc3)c(-c3ccc([C@]4(N)C[C@](C)(O)C4)cc3)cn2)CC1` [Example A108, N-(trans-4-(2-((5-(4-(trans-1-amino-3-hydroxy-3-methylcyclobutyl)phenyl)-4-phenylpyridin-2-yl)amino)-2-oxoethyl)cyclohexyl)-N-isopropylcyclopropanecarboxamide], the IC50 on p-Akt2 in WM115 cells is 2700 nM; on p-Akt3 in WM115 cells, 110 nM; on Akt3, 23 nM; on p-Akt1 in LNCaP cells it was above 10000 nM; on Akt2, 360 nM.
